“Also recorded” adds a separate entry of the source. Where no end group is shown, it is not given here.

In one assay the test system is Primary Fibroblasts. Kind of assay: Cell proliferation assay (CellTiter-Glo), Primary Fibroblasts. The assay is classed as cell-based. Conditions: Skin Fibroblast (non-tumor), 72 hrs. The protocol:
(§1) Cell Proliferation Assay. The Tat-RAF1-73, Tat-RAF1-78, Tat-EGFR-697 and Tat-Flag peptides were tested for growth inhibition in an in vitro cell proliferation assay. The assay tested the peptides against ten tumor cell lines and four non-tumor cell lines (Primary Fibroblasts, CCD 841 CoN, human umbilical vein cells and Human Hepatocytes). Cells were plated in a 384 well plate and allowed to grow for 24 hrs. Peptides were then added to cultures at a final concentration range of 100 μM-0.2 μM. Cells and peptides were then reacted for 72 hrs, after which the CellTiter-Glo Luminescent Cell Viability Assay kit (Promega) was used to assess cytotoxicity of therapeutic peptides. IC50 values were determined by the percent cell growth of the untreated (vehicle) control calculated from the luminescence signals compared to test wells. The surviving fraction of cells is determined by dividing the mean luminescence values of the test agents by the mean luminescence values of the untreated control. The inhibitory concentration value, IC50, for the test agents and control was estimated using Prism 8 software (GraphPad Software, Inc.) by curve- fitting the data using the non-linear regression analysis.
For orientation: In ATP-based viability assays light output follows the ATP content of the culture.

For the next assay, the system named is Colo205. The assay is described as follows: Cell proliferation assay (CellTiter-Glo), Colo205. The assay is classed as cell-based. To be noted: Colo205, Human Colon, 72 hrs. The protocol:
as §1

Assay [1] has as its system Human umbilical vein endothelial cells (HUVEC). Kind of assay: Cell proliferation assay (CellTiter-Glo), HUVEC. The assay is classed as cell-based. To be noted: Normal endothelial (non-tumor), 72 hrs. The protocol:
as §1

A further assay relates to HT1376. Kind of assay: Cell proliferation assay (CellTiter-Glo), HT1376. The assay is classed as cell-based. To be noted: HT1376, EGFR mRNA (Log2) 5., 72 hrs, starred value was averaged using >100 μM value for one trial result. The method, then: as §1
Assay [2] relates to ten tumor cell lines and four non-tumor cell lines. Kind of assay: Cell proliferation assay (CellTiter-Glo), summary over the cell panel. The assay is classed as cell-based. To be noted: any of the cells screened. The method, then:
as §1
Ten cancer cell lines were screened as well as […] non-cancer cell types (e.g. primary fibroblasts, CCD 841 CoN, and human hepatocytes). […]

The next assay concerns SK-MEL-5. Kind of assay: Cell proliferation assay (CellTiter-Glo), SK-MEL-5. The assay is classed as cell-based. To be noted: SK-MEL-5, EGFR mRNA (Log2) 5.92, 72 hrs. The protocol:
as §1

The next assay has as its system FaDu. Kind of assay: Cell proliferation assay (CellTiter-Glo), FaDu. The assay is classed as cell-based. Conditions: EGFR mRNA (Log2) 6.28, 72 hrs. The method, then: as §1
A further assay deals with CCD 841 CoN. Kind of assay: Cell proliferation assay (CellTiter-Glo), CCD 841 CoN. The assay is classed as cell-based. Conditions: Normal Human Colon (non-tumor), 72 hrs. The protocol:
as §1

A further assay concerns Jurkat. Kind of assay: Cell proliferation assay (CellTiter-Glo), Jurkat. The assay is classed as cell-based. To be noted: RAF1 mRNA (Log2) 6.05, 72 hrs. The method, then: as §1
In the next assay the test system is MDA-MB-231. The assay is described as follows: Cell proliferation assay (CellTiter-Glo), MDA-MB-231. The assay is classed as cell-based. Conditions: MDA-MB-231, EGFR mRNA (Log2) 4.78, 72 hrs. The method, then: as §1
In the next assay the test system is Human Hepatocytes. The assay is described as follows: Cell proliferation assay (CellTiter-Glo), Human Hepatocytes. The assay is classed as cell-based. To be noted: Human Hepatocytes (non-tumor), 72 hrs. The protocol: as §1
A further assay deals with SNU398. The assay is described as follows: Cell proliferation assay (CellTiter-Glo), SNU398. The assay is classed as cell-based. Conditions: SNU398, RAF1 mRNA (Log2) 6.07, 72 hrs. The protocol:
as §1

The subject of another assay is HUH6-luc. The assay is described as follows: Cell proliferation assay (CellTiter-Glo), HUH6-luc. The assay is classed as cell-based. Conditions: RAF1 mRNA (Log2) 6.05, 72 hrs. The method, then:
as §1

In another assay the test system is A549. The assay is described as follows: Cell proliferation assay (CellTiter-Glo), A549. The assay is classed as cell-based. To be noted: A549, RAF1 mRNA (Log2) Negative, 72 hrs. The protocol: as §1
The subject of the next assay is H929. Kind of assay: Cell proliferation assay (CellTiter-Glo), H929. The assay is classed as cell-based. To be noted: H929, Human Multiple Myeloma, peptides 100 μM-0.2 μM, 72 hrs. The method, then: as §1
Another assay has as its system Hs578T cells. The assay is described as follows: Arrayed validation of lentivirally delivered gene fragments, WST-8 cell growth, Hs578T. Conditions: 7 days, vs GFP control. For orientation: Formazan colour is commonly taken as a measure of viable cells.
A further assay has as its system MDA-MB-231 cells. Kind of assay: Arrayed validation of lentivirally delivered gene fragments, WST-8 cell growth, MDA-MB-231. Conditions: 7 days, vs GFP control.
Assay [3] relates to triple-negative breast cancer cell growth. The assay is described as follows: Inhibition of cell growth by drug-like peptides (summary statements). The assay is classed as cell-based. Conditions: compared with FDA approved small molecules. The protocol:
Engineering Peptides for Exogenous Delivery. Peptides shown in FIG. 3B were fused to an N-terminal cell penetrating motif via a (GS)3 linker sequence (Table 5) and chemically synthesized by GenScript's Custom Peptide Synthesis service at crude purity. For dose response experiments, cells were plated in 96 well plates (n=4) at 50% confluency and peptides were added at the indicated concentrations with cell viability quantified after 24hrs via the WST-8 assay. Cell viability was normalized to that of an untreated control on the same plate.

The next assay relates to MCF-7 cells. Kind of assay: Arrayed validation of lentivirally delivered gene fragments, WST-8 cell growth, MCF-7.
A further assay deals with HEK293T cells. The assay is described as follows: Arrayed validation of lentivirally delivered gene fragments, WST-8 cell growth, HEK293T.

Description for HEK293T cells: (§2) All cell lines used were cultured in DMEM media supplemented with 10% FBS. The fitness impact of highly depleted gene fragments was tested in an arrayed format via a WST-8 (Dojindo) cell growth assay. […] Cells were transduced at an MOI of 4 and switched to puromycin containing media after 48 hours. Following 24 hours of puromycin selection 1,500 cells were seeded per well as biological replicates in a 96 well plate. All experimental groups for Hs578T cells had n=4. […] For HEK293T and MCF-7 cells all experimental groups had n=8. 2 μg/ml puromycin was used to select Hs578T and MCF-7 cells, while 3.5 μg/ml puromycin was used to select MDA-MB-231 and HEK293T cells. […] Cell growth was then quantified via absorbance at 450 nm following 1.5 hrs of incubation with WST-8 reagent. A two-tailed P value was then calculated via an unpaired ttest with Welch's correction.
Description for Hs578T cells: as §2
Description for MCF-7 cells: as §2
Description for MDA-MB-231 cells: as §2

Turning to “GRKKRRQRRRPPQGSGSGSDYKDHDGDYKDHDIDYKDDDDK [Tat-Flag, reference compound]”, the IC50 (in the assay on Primary Fibroblasts; with Colo205; in assay [1]; in the assay with HT1376; with SK-MEL-5; in the assay on FaDu) was greater than 100 µM each time. Further, the IC50 in the assay on CCD 841 CoN, in the assay with Jurkat, in the assay on MDA-MB-231, in the assay with Human Hepatocytes, in the assay with SNU398 and in the assay on HUH6-luc was greater than 100 µM throughout. The IC50 in the assay with A549 and in the assay with H929 was greater than 100 µM in each case. In addition, in [2], the “activity in the cells screened” value is “no activity”.

“GRKKRRQRRRPPQGSGSGSMEAPNQALLRILKETEFKKIKVLGSGAFGTVYKGLWIPEGE [Tat-EGFR-697]”: the IC50 in the assay on Primary Fibroblasts is 15.1 µM; in the assay on Colo205, 19.8 µM; in assay [1], 14 µM; with HT1376, 95.6 µM; in the assay on SK-MEL-5, 27.6 µM; in the assay on FaDu it was 89.2 µM. The IC50 in the assay with CCD 841 CoN was greater than 100 µM; in the assay with Jurkat, 41.1 µM; in the assay on MDA-MB-231, 56.6 µM; with Human Hepatocytes, 11.6 µM; with SNU398 it was 29.2 µM; with HUH6-luc, 73.5 µM. For the same sequence, the results for the IC50 with A549 and with H929 were 59.6 µM and 5.1 µM, respectively.

Take “MEAPNQALLRILKETEFKKIKVLGSGAFGTVYKGLWIPEGE [EGFR-697]”: the “cell growth after lentiviral overexpression (WST-8)” value (“cell growth … (WST-8)” below) is given as “deleterious to cell growth; also recorded: significant growth arrest” in the assay with Hs578T cells, “deleterious to cell growth” with MDA-MB-231 cells, “reduced fitness defect” in the assay with MCF-7 cells and “no growth defects” with HEK293T cells. In addition, the “triple-negative breast cancer cell growth in vitro” value in [3] is given as “opposed triple-negative breast cancer cell growth in vitro as effectively as some FDA approved small molecules”.

As for “MFVDEYDPTIEDSYRKQVVIDGETCLLDILDTAGKEEYSAM [KRAS61K-7]”, the “cell growth … (WST-8)” value in the assay with Hs578T cells and in the assay with MDA-MB-231 cells was “significantly reduced cell growth” each time.

For “MIQNHFVDEYDPTIEDSYRKQVVIDGETCLLDILDTAGKEE [KRAS61K-3]”, the “cell growth … (WST-8)” value in the assay with Hs578T cells and in the assay with MDA-MB-231 cells was “significantly reduced cell growth” each time.

With “MPTIEDSYRKQVVIDGETCLLDILDTAGKEEYSAMRDQYMR [KRAS61K-13]”, the “cell growth … (WST-8)” value with Hs578T cells and in the assay on MDA-MB-231 cells was “significantly reduced cell growth” in each case.

For “MRNGMSLHDCLMKALKVRGLQPECCAVFRLLHEHKGKKARL (cysteines drawn unpaired) [RAF1-73]”, the “triple-negative breast cancer cell growth in vitro” value in assay [3] is “opposed triple-negative breast cancer cell growth in vitro as effectively as some FDA approved small molecules”. Further, the “cell growth … (WST-8)” value with HEK293T cells is “no growth defects”.

As a reminder, the IC50 is the concentration at which inhibition is half-maximal. High values mean weaker potency in that assay, low ones greater potency in that assay.

The values are drawn from patent publication US20220307013A1, “GENE FRAGMENT OVEREXPRESSION SCREENING METHODOLOGIES, AND USES THEREOF” (priority 2019, published 2022).
